Results reported in ChEMBL document CHEMBL5150076, “Discovery of Novel Orally Bioavailable Triazoles with Potent and Broad-Spectrum Antifungal Activity In Vitro and In Vivo” (J Med Chem, 2022).
Values after ≈ are worked out from the molar mass of the structure shown. Active and inactive are the calls of the source. The rule behind the calls is not given here.

Key:
Candida albicans [1] = experiment: Antifungal activity against Candida albicans 20#; type: functional
[2] = Tmax in Sprague-Dawley rat at 5 mg/kg, po by LC-MS analysis; type: ADME, organism-based; details: in vivo
[3] = Half life in Sprague-Dawley rat at 2 mg/kg, iv by LC-MS analysis; type: ADME, organism-based; details: in vivo
Aspergillus fumigatus = experiment: Antifungal activity against Aspergillus fumigatus 7544 infected in ICR mouse assessed as survival rate at 60 mg/kg, po qd infected with fungus for 2 hrs prior to compound addition for 7 days and measured for 20 days; type: functional; details: time 20 day
Cryptococcus neoformans [4] = experiment: Antifungal activity against Cryptococcus neoformans H99 infected in ICR mouse assessed as median survival time at 1 mg/kg, po qd infected with fungus for 2 hrs prior to compound addition for 7 days and measured for 20 days; type: functional; details: time 20 day
Cryptococcus neoformans [5] = experiment: Antifungal activity against Cryptococcus neoformans H99 infected in ICR mouse assessed as delay in mortality at 0.5 to 5 mg/kg, po qd infected with fungus for 2 hrs prior to compound addition for 7 days and measured for 20 days; type: functional, organism-based; details: dose 0.5-5 mg/kg, time 20.0 day
Cryptococcus neoformans [6] = experiment: Antifungal activity against Cryptococcus neoformans 32605; type: functional
Candida albicans [7] = experiment: Antifungal activity against Candida albicans SC5314 incubated for 24 hrs by microbroth dilution method; type: functional
[8] = AUC(0 to infinity) in Sprague-Dawley rat at 5 mg/kg, po by LC-MS analysis; type: ADME, organism-based; design: time infinity, dose 5 mg/kg, route po; details: in vivo
Pichia kudriavzevii = experiment: Antifungal activity against Candida krusei 463; type: functional
[Candida] auris = Antifungal activity against Candida auris 887; type: functional; details: Candidozyma auris
Candida albicans [9] = experiment: Antifungal activity against Candida albicans SC5314 infected in ICR mouse assessed as median survival time at 0.25 mg/kg, po qd infected with fungus for 2 hrs prior to compound addition for 7 days and measured for 20 days; type: functional; details: time 20 day
Cryptococcus neoformans [10] = experiment: Antifungal activity against Cryptococcus neoformans H99 infected in ICR mouse assessed as median survival time at 2 mg/kg, po qd infected with fungus for 2 hrs prior to compound addition for 7 days and measured for 20 days; type: functional; details: time 20 day
Cryptococcus neoformans [11] = experiment: Antifungal activity against Cryptococcus neoformans H99 infected in ICR mouse assessed as median survival time at 5 mg/kg, po qd infected with fungus for 2 hrs prior to compound addition for 7 days and measured for 20 days; type: functional; details: time 20 day

## C[C@@H](c1cn(-c2ccc(Cl)cc2F)nn1)[C@](O)(Cn1cncn1)c1ccc(F)cc1F
Candida albicans [1]
  MIC: ≤ 0.0313 µg/mL
[2]
  Tmax: 2.71 h
[3]
  half-life: 4.5 h
Aspergillus fumigatus
  Activity: 100%
Cryptococcus neoformans [4]
  Time: 14 days
Cryptococcus neoformans [5]
  Activity: Active
Cryptococcus neoformans [6]
  MIC: 0.0156 µg/mL (≈ 0.0348 µM)
Candida albicans [7]
  MIC: 0.0625 µg/mL (≈ 0.139 µM)
[8]
  AUC(0-inf): 3860 ng·h/mL
Pichia kudriavzevii
  MIC: 0.125 µg/mL (≈ 0.278 µM)
[Candida] auris
  MIC: 1 µg/mL (≈ 2.23 µM)
Candida albicans [9]
  Time: 13.5 days
Cryptococcus neoformans [10]
  Time: 8.5 days
Cryptococcus neoformans [11]
  Time: 18 days
